From patent publication US11643421B2, “Process for the preparation of tricyclic PI3K inhibitor compounds and methods for using the same for the treatment of cancer” (priority 2015, dated 2023)
Like-named read-outs stand apart in the source and are kept apart here.

How the values were obtained:
pAKT = experiment: pAKT/total AKT in U87 MG/M xenograft tumors; format: in vivo, mice; settings: 0.5, 3, 10, 18 mg/kg, 24 days continuous dosing, 1 hour and 4 hours post dose
Description: The effect of compound IIIat on the pharmacodynamics (PD) marker pAKT in the U87 MG/M human glioblastoma xenograft model after 24 days of continuous dosing at dosage rates of 0.5 mg/kg, 3 mg/kg, 10 mg/kg and 18 mg/kg was evaluated. Tumors were excised from animals 1 hour and 4 hours after the last administered dose on day 24 and processed for analysis of pAKT and total AKT. The results are reported in FIG. 4 as a ratio of pAKT to total AKT wherein indicated values are the means for groups of 3 animals and error bars indicate ±standard error of the mean. Levels of pAKT^Ser473 and total AKT were measured by electrochemiluminescence using Meso Scale Discovery according to manufacturer's instructions (Gaithersburg, Md.).

[1] = Phase I dose-escalation study, plasma pharmacokinetics; format: in vivo, human; settings: for concentration at 15 day: read-out: Cmin (μM), Mean; for AUC(0-t): read-out: AUC0-24 (μM*hr), Mean; for AUC(0-inf): read-out: AUCinf (μM*hr), Mean
Description: Plasma samples for pharmacokinetic (“PK”) analysis were collected on day 1 and day 8 or day 15 of cycle 1. Fluorodeoxyglucose positron emission tomography (“FDG-PET”) was performed at baseline and on-treatment.
Dosing times may have been adjusted to accommodate for time shifts from the home administration schedule (e.g., for clinic visits with PK sampling or traveling), but times were to be adjusted by no more than 4 hours at a time.
For administration under fasted conditions, patients fasted overnight for at least 8 hours before dosing and 2 hours after dosing.
For Cohorts 1-6 (2-30 mg), the single dose on Cycle 1, Day 1 was followed by a 7 day washout-period, after which continuous once daily dosing, for 28 consecutive days, was started on Day 8. Blood samples for Cohorts 1-6 were collected on Day 15 for PK analysis.
All plasma concentration-time data collected in Cycle 1 were analyzed using WinNonlin® (Version 6.4, Pharsight Corp, Mountain View, Calif.) to estimate PK parameters, which included but were not limited to AUC0-last (where AUC refers to the area under the concentration-time curve) and/or AUCinf, Cmax, Cmin, tmax, half-life, CL/F, and accumulation ratio. Estimates for each PK parameter and summary statistics (mean, standard deviation, coefficient of variation, median, minimum, and maximum) were tabulated by dose level and schedule. Nominal time data were used in the analysis, and the linear up/log down trapezoidal method was used for calculating AUC.

high-grade gliomas = experiment: Phase I study, exploratory MRI; format: in vivo, human; settings: 34 patients, Ktrans, cerebral blood volume, apparent diffusion coefficient
Description: Thirty-four patients were evaluated by exploratory magnetic resonance imaging (“MRI”). […] The Ktrans changes were within the likely noise range of the measurement (based on variability in low-exposure cohorts).

[2] = human, plasma, oral, 2 mg once daily, multiple doses, Cycle 1 Day 15
[3] = human, plasma, oral, 4 mg once daily, multiple doses, Cycle 1 Day 15
[4] = human, plasma, oral, 8 mg once daily, multiple doses, Cycle 1 Day 15
[5] = human, plasma, oral, 15 mg once daily, multiple doses, Cycle 1 Day 15
[6] = human, plasma, oral, 20 mg once daily, multiple doses, Cycle 1 Day 15
[7] = human, plasma, oral, 45 mg once daily, multiple doses, Cycle 1 Day 8
[8] = human, plasma, oral, 65 mg once daily, multiple doses, Cycle 1 Day 8
[9] = human, plasma, 2 mg single oral dose, Cycle 1 Day 1
[10] = human, plasma, 4 mg single oral dose, Cycle 1 Day 1
[11] = human, plasma, 8 mg single oral dose, Cycle 1 Day 1
[12] = human, plasma, 15 mg single oral dose, Cycle 1 Day 1
[13] = human, plasma, 20 mg single oral dose, Cycle 1 Day 1
[14] = human, plasma, 30 mg single oral dose, Cycle 1 Day 1
[15] = human, plasma, 45 mg single oral dose, Cycle 1 Day 1
[16] = human, plasma, 65 mg single oral dose, Cycle 1 Day 1

With CC1(C)OCCn2c1nc1c(N3CCOCC3)nc(-c3cnc(N)nc3)nc12 [GDC-0084, 5-(6,6-dimethyl-4-morpholino-8,9-dihydro-6H-[1,4]oxazino[3,4-e]purin-2-yl)pyrimidin-2-amine] the “inhibition of pAKT (pAKT/total AKT) in U87 tumors” value (pAKT) was “Dose and concentration dependent inhibition of pAKT”, the concentration at 15 day ([1]; 4 mg once daily, multiple doses, Cycle 1 Day 15) was 0.0207 µM and the “CL/F (L/hr), Mean” value ([1]; 4 mg single oral dose, Cycle 1 Day 1) was 4.87 L/h. For the same molecule, the concentration at 15 day ([1]; 8 mg once daily, multiple doses, Cycle 1 Day 15) was 0.0301 µM, the “CL/F (L/hr), Mean” value ([1]; 8 mg single oral dose, Cycle 1 Day 1) was 12.4 L/h and the concentration at 15 day ([1]; 15 mg once daily, multiple doses, Cycle 1 Day 15) was 0.0581 µM. The concentration at 15 day ([1]; 20 mg once daily, multiple doses, Cycle 1 Day 15) was 0.0635 µM, the “CL/F (L/hr), Mean” value ([1]; 20 mg single oral dose, Cycle 1 Day 1) was 7.92 L/h and the concentration at 15 day ([1]; 30 mg once daily, multiple doses, Cycle 1 Day 15) was 0.155 µM. The “CL/F (L/hr), Mean” value ([1]; 30 mg single oral dose, Cycle 1 Day 1) was 8.22 L/h, the concentration at 15 day ([1]; 45 mg once daily, multiple doses, Cycle 1 Day 8) was 0.206 µM and the concentration at 15 day ([1]; 65 mg once daily, multiple doses, Cycle 1 Day 8) was 0.271 µM. It also gave a half-life ([1]; human, plasma, oral, across Cohorts 1-6 (2 to 30 mg), single dose, read-out: apparent terminal phase t1/2 (converted)) of roughly 18.7 h, a Cmax [1, 2] of 0.0331 µM and an AUC(0-t) [1, 2] of 0.346 µM·h. For the same molecule, the concentration at 15 day [1, 2] was 0.00877 µM, the Tmax ([1]; human, plasma, oral, 2 mg once daily, multiple doses, Cycle 1 Day 15, read-out: Tmax (hr), Median) was 2 h and the Cmax [1, 3] was 0.593 µM. For the same molecule, the AUC(0-t) [1, 3] was 0.833 µM·h, the Tmax ([1]; human, plasma, oral, 4 mg once daily, multiple doses, Cycle 1 Day 15, read-out: Tmax (hr), Median) was 2 h and the Cmax [1, 4] was 0.0883 µM. It also gave an AUC(0-t) [1, 4] of 1.16 µM·h, a Tmax ([1]; human, plasma, oral, 8 mg once daily, multiple doses, Cycle 1 Day 15, read-out: Tmax (hr), Median) of 2.5 h and a Cmax [1, 5] of 0.156 µM. The AUC(0-t) [1, 5] was 2.34 µM·h, the Tmax ([1]; human, plasma, oral, 15 mg once daily, multiple doses, Cycle 1 Day 15, read-out: Tmax (hr), Median) was 3 h and the Cmax [1, 6] was 0.23 µM. For the same molecule, the AUC(0-t) [1, 6] was 2.87 µM·h, the Tmax ([1]; human, plasma, oral, 20 mg once daily, multiple doses, Cycle 1 Day 15, read-out: Tmax (hr), Median) was 2 h and the Cmax ([1]; human, plasma, oral, 30 mg once daily, multiple doses, Cycle 1 Day 15) was 0.332 µM. It also gave an AUC(0-t) ([1]; human, plasma, oral, 30 mg once daily, multiple doses, Cycle 1 Day 15, n = 5) of 5.67 µM·h, a Tmax ([1]; human, plasma, oral, 30 mg once daily, multiple doses, Cycle 1 Day 15, read-out: Tmax (hr), Median) of 2 h and a Cmax [1, 7] of 0.544 µM. The AUC(0-t) [1, 7] was 8.06 µM·h, the Tmax ([1]; human, plasma, oral, 45 mg once daily, multiple doses, Cycle 1 Day 8, read-out: Tmax (hr), Median) was 3.5 h and the Cmax [1, 8] was 0.58 µM. It also gave an AUC(0-t) [1, 8] of 9.01 µM·h, a Tmax ([1]; human, plasma, oral, 65 mg once daily, multiple doses, Cycle 1 Day 8, read-out: Tmax (hr), Median) of 3 h and a half-life ([1]; human, plasma, po, 2 mg, 2 mg single oral dose, Cycle 1 Day 1, read-out: T1/2 (hr), Mean (converted)) of 16.9 h. It also gave a half-life ([1]; human, plasma, po, 4 mg, 4 mg single oral dose, Cycle 1 Day 1, read-out: T1/2 (hr), Mean (converted)) of 21.8 h, a half-life ([1]; human, plasma, po, 8 mg, 8 mg single oral dose, Cycle 1 Day 1, read-out: T1/2 (hr), Mean (converted)) of 18.2 h and a half-life ([1]; human, plasma, po, 15 mg, 15 mg single oral dose, Cycle 1 Day 1, read-out: T1/2 (hr), Mean (converted)) of 18.1 h. It also gave a half-life ([1]; human, plasma, po, 20 mg, 20 mg single oral dose, Cycle 1 Day 1, read-out: T1/2 (hr), Mean (converted)) of 14.8 h, a half-life ([1]; human, plasma, po, 30 mg, 30 mg single oral dose, Cycle 1 Day 1, read-out: T1/2 (hr), Mean (converted)) of 22 h and an AUC(0-t) [1, 9] of 0.21 µM·h. It also gave an AUC(0-inf) [1, 9] of 0.365 µM·h, a Tmax ([1]; human, plasma, 2 mg single oral dose, Cycle 1 Day 1, read-out: Tmax (hr), Median) of 2 h and a Cmax [1, 10] of 0.0359 µM. It also gave an AUC(0-t) [1, 10] of 0.435 µM·h, an AUC(0-inf) [1, 10] of 0.833 µM·h and a Tmax ([1]; human, plasma, 4 mg single oral dose, Cycle 1 Day 1, read-out: Tmax (hr), Median) of 3 h. The Cmax [1, 11] was 0.0452 µM, the AUC(0-t) [1, 11] was 0.509 µM·h and the AUC(0-inf) [1, 11] was 0.974 µM·h. The Tmax ([1]; human, plasma, 8 mg single oral dose, Cycle 1 Day 1, read-out: Tmax (hr), Median) was 3 h, the Cmax [1, 12] was 0.0912 µM and the AUC(0-t) [1, 12] was 1.09 µM·h. For the same molecule, the AUC(0-inf) [1, 12] was 1.97 µM·h, the Tmax ([1]; human, plasma, 15 mg single oral dose, Cycle 1 Day 1, read-out: Tmax (hr), Median) was 2 h and the Cmax [1, 13] was 0.159 µM. It also gave an AUC(0-t) [1, 13] of 1.9 µM·h, an AUC(0-inf) [1, 13] of 2.75 µM·h and a Tmax ([1]; human, plasma, 20 mg single oral dose, Cycle 1 Day 1, read-out: Tmax (hr), Median) of 2 h. The Cmax [1, 14] was 0.174 µM, the AUC(0-t) [1, 14] was 2.42 µM·h and the AUC(0-inf) [1, 14] was 5.33 µM·h. The Tmax ([1]; human, plasma, 30 mg single oral dose, Cycle 1 Day 1, read-out: Tmax (hr), Median) was 2 h, the Cmax [1, 15] was 0.234 µM and the AUC(0-t) [1, 15] was 3.12 µM·h. It also gave a Tmax ([1]; human, plasma, 45 mg single oral dose, Cycle 1 Day 1, read-out: Tmax (hr), Median) of 3 h, a Cmax [1, 16] of 0.255 µM and an AUC(0-t) [1, 16] of 4.06 µM·h. The Tmax ([1]; human, plasma, 65 mg single oral dose, Cycle 1 Day 1, read-out: Tmax (hr), Median) was 2.5 h, the Tmax ([1]; human, plasma, single oral dose, all cohorts, read-out: median Tmax) was roughly 2 h and the “dose proportionality of Cmax and AUC0-24” value ([1]; single and multiple doses, 2 mg to 65 mg once daily) was “approximately linear and dose proportional increase in Cmax and AUC0-24”. For the same molecule, the “MRI derived metrics versus drug plasma exposure” value (high-grade gliomas) was “none of the MRI derived metrics (Ktrans, Cerebral blood volume, apparent diffusion coefficient) showed any significant trend with drug plasma exposure”.
